Results taken from paper PMC7828231, “Delphinidin Increases the Sensitivity of Ovarian Cancer Cell Lines to 3-bromopyruvate” (International Journal of Molecular Sciences, 2021).

Tests used:
[1] = tested on: Multidrug-resistant SKOV3 cells; parameters: method as in PMID 22954696; conditions: cited from earlier work
[2] = tested on: PEO1 cells; test: Cell migration (scraped area closure); format: cell-based, human
Procedure: Ovarian cancer cells and human normal fibroblasts were seeded on a 24-well plate at a density of 7 × 10^4/well (PEO1), 6.5 × 10^4/well (SKOV3) and 6 × 10^4/well (MRC-5) in 700 µL of appropriate cell medium and cultured at 37 °C to reach 90–95% confluence. Then, the cells in the middle of the wells were scraped off using sterile pipette tips (100 µL), cell debris was removed by washing with medium containing 2% FBS and the tested compounds diluted with medium containing 2% FBS were added. Images of the scraped area were collected after 12 h and 24 h at 10× objective magnification using an Olympus CKX53 microscope with a U-TV0. 5XC-3 digital microscope camera. The obtained results were analyzed using ImageJ software. The percentage of scraped area closure was estimated as the ratio of area measured after 12- or 24-h incubation and the area at the beginning of the experiment.

[3] = tested on: not multi-resistant SKOV3 cells; parameters: method as in PMID 22954696; conditions: cited from earlier work
[4] = tested on: 22Rν1 cells; parameters: method as in PMID 18948740; conditions: cited from earlier work
[5] = tested on: SKOV3 cells; test: Apoptosis and necrosis assay (RealTime-Glo Annexin V); format: cell-based, human; conditions: after 24 h
Procedure: The levels of apoptosis and necrosis were assayed using the RealTime-Glo™ Annexin V Apoptosis and Necrosis Assay. Cells were seeded into a white 96-well plate with optical bottom, cultured and treated adequately, as stated above. After 24 h, 100 μL of the freshly prepared reagent was added to each well according to the manufacturer’s protocols. The fluorescence and luminescence were measured according to the protocols.

[6] = tested on: NCI-H441 cells; parameters: method as in PMID 24124611; conditions: cited from earlier work
[7] = tested on: SK-MES-1 cells; parameters: method as in PMID 24124611; conditions: cited from earlier work
[8] = tested on: LoVo cell subline resistant to adriamycin; parameters: method as in PMID 20494645; conditions: cited from earlier work
[9] = tested on: Caco-2 cells; parameters: method as in PMID 15016660; conditions: Caco-2, 100–200 µM; cited from earlier work
[10] = tested on: HCT116 cells; parameters: method as in PMID 18729103; conditions: cited from earlier work
[11] = tested on: LoVo cells; parameters: method as in PMID 20494645; conditions: LoVo parent cell line; cited from earlier work
[12] = tested on: HCT-116 cells; parameters: method as in PMID 15680311; conditions: HCT-116, 50–200 µM; cited from earlier work
[13] = target: glyoxalase I; parameters: method as in PMID 20801663; conditions: read-out: IC50 for glyoxalase I inhibition; cited from earlier work
[14] = tested on: PC3 cell line; parameters: method as in PMID 27462923; conditions: PC3, up to 150 µM; cited from earlier work
[15] = tested on: LnCaP cells; parameters: method as in PMID 27462923; conditions: starting from a concentration of 50 µM; cited from earlier work
[16] = tested on: NCI H460 cells; parameters: method as in PMID 15680311; conditions: NCI H460, 50–200 µM; cited from earlier work
[17] = tested on: HeLa cells; parameters: method as in PMID 15016660; conditions: 100–200 µM; cited from earlier work
[18] = tested on: MCF-7; parameters: method as in PMID 15680311; conditions: MCF-7, 50–200 µM; cited from earlier work

Compound	IC50 [1]	cell migration [2]	IC50 [3]	IC50 [4]	induction of apoptosis [5]	IC50 [6]	IC50 [7]	IC50 [8]	viability [9]	IC50 [10]	IC50 [11]	viability [12]	IC50 [13]	viability [14]	viability [15]	viability [16]	viability [17]	viability [18]
O=C(O)C(=O)CBr [3-BP, 3-bromopyruvic acid]	22 ± 4 µM	significantly inhibited	19 ± 3 µM	–	–	–	–	–	–	–	–	–	–	–	–	–	–	–
Oc1cc(O)c2cc(O)c(-c3cc(O)c(O)c(O)c3)[o+]c2c1 [Delphinidin chloride, 3,3′,4′,5,5′,7-hexahydroxyflavylium]	–	–	–	90 µM	induced apoptosis	58 µM	44 µM	16 ± 2 µM	decreased the viability	110 µM	38 µM	did not affect significantly the viability	1.9 µM	did not affect the viability	concentration-dependently decreased the viability	did not affect significantly the viability	decreased the viability	decreased, concentration-dependently, the viability
